Entries after “also recorded” stand apart in the source; their conditions may differ. Read-outs that look alike come from different tables or passages of the source.
Columns and labels:
human NaV1.6 [1] = target: T1, human NaV1.6 (Homo sapiens, UniProt Q9UQD0); assay: Persistent (late) INa inhibition, ATX-II activated, automated patch clamp in HEK cells; type: cell-based; settings: for Persistent INa Hill slope: hNaV1.6 in HEK cells, ATX-II
T1 construct: HEK-293 cell lines stably expressing human NaV1.6 (NP_055006) were used; expressed in transfected cells
T1 sequence (Q9UQD0 whole entry): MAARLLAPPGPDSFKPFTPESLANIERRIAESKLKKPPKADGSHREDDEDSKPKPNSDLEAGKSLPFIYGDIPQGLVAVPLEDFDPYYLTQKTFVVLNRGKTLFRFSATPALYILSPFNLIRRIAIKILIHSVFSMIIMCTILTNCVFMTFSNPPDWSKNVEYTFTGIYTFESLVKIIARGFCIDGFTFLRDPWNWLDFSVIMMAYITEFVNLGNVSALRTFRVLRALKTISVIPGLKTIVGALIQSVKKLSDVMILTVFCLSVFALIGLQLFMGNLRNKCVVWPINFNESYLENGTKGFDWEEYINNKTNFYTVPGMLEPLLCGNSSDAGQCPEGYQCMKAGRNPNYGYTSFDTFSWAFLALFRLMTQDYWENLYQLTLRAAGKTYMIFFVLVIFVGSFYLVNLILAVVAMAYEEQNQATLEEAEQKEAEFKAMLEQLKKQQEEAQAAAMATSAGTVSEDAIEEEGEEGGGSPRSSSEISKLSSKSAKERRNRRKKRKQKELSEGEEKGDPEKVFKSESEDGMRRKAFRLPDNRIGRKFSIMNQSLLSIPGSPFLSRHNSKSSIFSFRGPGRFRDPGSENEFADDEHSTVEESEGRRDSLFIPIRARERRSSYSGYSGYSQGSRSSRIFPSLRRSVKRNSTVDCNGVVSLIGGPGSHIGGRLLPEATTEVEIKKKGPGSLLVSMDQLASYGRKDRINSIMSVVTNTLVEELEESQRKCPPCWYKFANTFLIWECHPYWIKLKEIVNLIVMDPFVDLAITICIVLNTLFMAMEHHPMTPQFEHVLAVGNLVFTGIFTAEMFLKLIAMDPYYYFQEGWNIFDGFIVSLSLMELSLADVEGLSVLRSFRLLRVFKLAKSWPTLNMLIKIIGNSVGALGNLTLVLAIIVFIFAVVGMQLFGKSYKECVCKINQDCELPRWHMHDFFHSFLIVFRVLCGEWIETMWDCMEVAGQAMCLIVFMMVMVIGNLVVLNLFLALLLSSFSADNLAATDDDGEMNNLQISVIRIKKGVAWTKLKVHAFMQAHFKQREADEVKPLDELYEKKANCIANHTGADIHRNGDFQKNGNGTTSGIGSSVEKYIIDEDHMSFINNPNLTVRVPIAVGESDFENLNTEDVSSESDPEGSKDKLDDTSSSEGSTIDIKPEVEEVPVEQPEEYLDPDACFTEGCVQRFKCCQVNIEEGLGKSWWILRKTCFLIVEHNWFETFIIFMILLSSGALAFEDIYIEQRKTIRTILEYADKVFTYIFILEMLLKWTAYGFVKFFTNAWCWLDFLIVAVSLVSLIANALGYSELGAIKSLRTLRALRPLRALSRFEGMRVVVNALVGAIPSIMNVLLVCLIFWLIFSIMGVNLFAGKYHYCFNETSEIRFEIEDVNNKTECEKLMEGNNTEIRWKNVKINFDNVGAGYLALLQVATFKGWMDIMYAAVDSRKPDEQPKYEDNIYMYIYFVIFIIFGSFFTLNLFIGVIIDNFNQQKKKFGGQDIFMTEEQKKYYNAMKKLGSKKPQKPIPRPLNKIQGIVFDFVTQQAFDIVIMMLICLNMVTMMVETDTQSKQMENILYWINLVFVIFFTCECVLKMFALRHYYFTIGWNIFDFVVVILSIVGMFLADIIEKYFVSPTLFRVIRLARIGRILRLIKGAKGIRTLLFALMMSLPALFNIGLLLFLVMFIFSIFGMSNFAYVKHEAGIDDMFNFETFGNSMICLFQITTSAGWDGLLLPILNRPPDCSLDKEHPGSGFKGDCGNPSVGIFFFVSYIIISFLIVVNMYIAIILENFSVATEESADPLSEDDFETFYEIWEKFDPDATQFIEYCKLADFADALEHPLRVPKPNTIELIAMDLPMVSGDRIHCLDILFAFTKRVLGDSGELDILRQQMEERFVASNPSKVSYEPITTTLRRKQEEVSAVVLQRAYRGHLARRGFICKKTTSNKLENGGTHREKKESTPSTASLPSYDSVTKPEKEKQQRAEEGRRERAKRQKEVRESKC

human NaV1.6 [2] = target: T1, human NaV1.6; assay: Peak INa tonic block (TB), automated patch clamp in HEK cells; type: cell-based; settings: for Peak INa TB Hill slope: tonic block; for Ratio to Pers. INa (Peak INa TB): peak INa TB IC50 / persistent INa IC50
human NaV1.6 [3] = target: T1, human NaV1.6; assay: Peak INa use-dependent block (UDB-10 Hz), automated patch clamp in HEK cells; type: cell-based; settings: for activity dependent block of peak INa: in words, FIGS. 7A-7C; for Peak INa UDB-10 Hz Hill slope: use-dependent block 10 Hz; for Ratio to Pers. INa (Peak INa UDB-10 Hz): UDB IC50 / persistent INa IC50; for UDB preference to TB: TB IC50 / UDB IC50
hNaV1.6 [4] = target: T2, hNaV1.6 (Homo sapiens, UniProt Q9UQD0); assay: Peak INa voltage-dependent block (VDB), automated patch clamp in HEK cells; type: cell-based; settings: for Peak INa VDB Hill slope: voltage-dependent block; for Ratio to Pers. INa (Peak INa VDB): VDB IC50 / persistent INa IC50
T2 construct: expressed in transfected cells; host or cells: HEK cells
T2 sequence (Q9UQD0 whole entry): as above

[5] = test system: MES-induced tonic hindlimb extension in male CD-1 mice; assay: MES acute seizure model, protection from tonic hindlimb extension (Example 9); type: in vivo, mouse; settings: for ED50: Mus musculus, administered dose
Method: Male CD-1 mice (Vital River, Beijing, China) approximately 6 weeks old were obtained for the study. Body weights were between 20.5 grams and 38.5 grams at the time the experiments were carried out. […] Food and water were available ad libitum.
Treatment was conducted using Compound 1 and 35% 2-hydroxypropyl-β-cyclodextrin (35% HPBCD, used as a negative control). Compound 1 stock solution was prepared fresh each experiment day in 35% HPBCD and protected from light. The stock solution was diluted with vehicle for lower doses.
Mice were brought to the test room at least one hour before the start of the experiment. Mice were administered valproate (VPA; 400 mg/kg, intraperitoneally); or vehicle (35% HPBCD, 10 mL/kg, intraperitoneally); or Compound 1 (0.3 mg/kg, 1 mg/kg, 3 mg/kg or 10 mg/kg, orally) 30 minutes prior to the MES test.
The electroshock apparatus was set to deliver a 50 mA square-wave stimulus, with a 0.8 second duration, a pulse width of 10 milliseconds, and a frequency of 50 Hz. A pair of custom stainless-steel electrodes were soaked in 0.2% agar, and then the subject received bilateral transauricular stimulation through ear-clip electrodes. During the stimulation, mice were manually restrained then released immediately into an observation cage where they were monitored continuously for 60 seconds by an observer blinded to treatment group.
Mice were anesthetized with CO2 and terminal plasma and brain tissue samples were collected. […] The supernatant plasma was pipetted into Eppendorf tubes.
All statistical analyses were conducted using GraphPad Prism 9.3. Means were combined and standard error was calculated using the Satterthwaite Approximation to combine standard deviations. […] ED50 and EC50 values were calculated from these fit curves.

[6] = test system: psychomotor seizures induced by 6-Hz electrical stimulation in wild-type CD-1 mice; assay: 6-Hz psychomotor seizure model; type: in vivo, mouse; settings: 600 mg/kg intraperitoneally
Source text: This study evaluated the efficacy of Compound 1 in attenuating psychomotor seizures induced by 6-Hz electrical stimulation at two different stimulation intensities (32 and 44 mA) in wild-type CD-1 mice. Psychomotor seizures are defined as the expression of at least one of the following behaviors: stun/immobility, forelimb clonus, straub tail or lateral head movement within 30 seconds of the stimulus. Protection is defined as a complete absence of the above behaviors within 30 seconds of the stimulus. Doses of Compound 1 used were 1 mg/kg, 3 mg/kg and 6 mg/kg administered orally. Valproate (600 mg/kg, administered intraperitoneally) was used as a positive control.
Male CD-1 mice (Charles River Laboratories; St. Constant, Quebec, CAN) were used for the study. Body weights at the time the experiment was carried out were 30-40 grams. The mice were group-housed in polycarbonate cages according to standard operating procedures. Animals were maintained on a 12-hour light/12 hour dark cycle, with all experimental activities occurring during the light phase. Food and water were available ad libitum. Mice acclimated to the test facility for at least 72 hours prior to testing.
Treatment was conducted using Compound 1 and 35% 2-hydroxypropyl-β-cyclodextrin (35% HPBCD, used as a negative control). Compound 1 stock solution was prepared fresh each experiment day in 35% HPBCD. […] Valproate was prepared fresh each experiment day in a vehicle of saline and dosed at 10 mL/kg.
Mice were administered vehicle (35% HPBCD), a single dose of Compound 1 (1 mg/kg, 3 mg/kg or 6 mg/kg) or valproate (600 mg/kg). Vehicle and Compound 1 were administered via oral gavage 30 minutes prior to […]. Valproate was administered as an intraperitoneal injection 60 minutes prior to the electrical stimulus.
Immediately prior to conducting the 6-Hz seizure test, a brief neurological assessment was performed. Each animal was visually assessed and received a score from 0 to 3 according to the following scoring system::neurological score of 0 corresponds to a normal status; neurological score of 1 corresponds to a modest decrease in spontaneous activity; neurological score of 2 corresponds to a marked decrease in spontaneous activity; and neurological score of 3 corresponds to loss of righting reflex.
Corneal electrodes moistened with saline (ECT unit 57800; Ugo Basile) were used to deliver the electrical stimulus (6-Hz, 0.2 millisecond pulse width, 3 seconds duration). The current delivered was either 32 mA or 44 mA. Immediately after the electrical stimulus, each mouse was monitored continuously for 30 seconds by an observer blinded to the treatment group. […] Mice were scored for the presence or absence of each seizure behavior, with a maximum total score of 4. […] At the end of the 6-Hz seizure test, plasma and brain samples were collected.
Mice were anesthetized with isoflurane, whole blood was collected via cardiac puncture and brains were harvested. Whole blood was collected in potassium EDTA tubes and centrifuged at ˜3300 g for 5 minutes at 4° C. to isolate plasma. Plasma and brain samples were stored at −80° C. and analyzed to determine levels of Compound 1.
All statistical analyses were conducted using GraphPad Prism 9.3. Seizure scores were compared using Kruskal-Wallis test, followed by Dunn's post hoc and p<0.05 was considered statistically significant.

hNaV1.6 [7] = target: T2, hNaV1.6; assay: Apparent binding (KON) and unbinding (KOFF) rates inferred from INa inhibition kinetics; type: cell-based; settings: read-out: apparent KON
[8] = 400 mg/kg intraperitoneally, listed as valproate

Compound: Nc1nnc(-c2cccc(Cl)c2Cl)c(N)n1 [Lamotrigine, lamotrigine]
- Persistent INa Hill slope (human NaV1.6 [1]): (1.0)
- Peak INa TB Hill slope (human NaV1.6 [2]): (0.8)
- activity dependent block of peak INa (human NaV1.6 [3]): minimal activity dependent block of peak INa
- Peak INa UDB-10 Hz Hill slope (human NaV1.6 [3]): (1.0)
- Peak INa VDB Hill slope (hNaV1.6 [4]): (0.9)
- ED50 [5]: 3.8 mg/kg

Compound: COC[C@@H](NC(C)=O)C(=O)NCc1ccccc1 [Lacosamide, lacosamide]
- Persistent INa Hill slope (human NaV1.6 [1]): (0.9)
- Ratio to Pers. INa (Peak INa UDB-10 Hz) (human NaV1.6 [3]): 0.8
- Peak INa UDB-10 Hz Hill slope (human NaV1.6 [3]): (1.3)
- Ratio to Pers. INa (Peak INa VDB) (hNaV1.6 [4]): 0.3
- Peak INa VDB Hill slope (hNaV1.6 [4]): (1.2)

Compound: Cc1cc(N2CCc3cc(F)ccc3C2)cc(C)c1NC(=O)CC(C)(C)C [XEN1101]
- ED50 [5]: 3.9 mg/kg

Compound: NC(=O)N1c2ccccc2CC(=O)c2ccccc21 [Oxcarbazepine, oxcarbazepine]
- Persistent INa Hill slope (human NaV1.6 [1]): (1.0)
- Ratio to Pers. INa (Peak INa TB) (human NaV1.6 [2]): 8
- Peak INa TB Hill slope (human NaV1.6 [2]): (1.7)
- Ratio to Pers. INa (Peak INa VDB) (hNaV1.6 [4]): 0.3
- Peak INa VDB Hill slope (hNaV1.6 [4]): (1.1)

Compound: CCCC(CCC)C(=O)O [Valproic acid]
- sedation before MES test ([5]; 400 mg/kg intraperitoneally, listed as Valproate): mild to moderate sedation
- protection against MES-induced hindlimb extension [5, 8]: all mice n=24 were seizure-free; also recorded: protected mice from MES-induced tonic hindlimb extension
- sedation before MES test [5, 8]: nearly all valproate-treated mice showed mild to moderate sedation
- neurological score (average) [6]: 1.2
- spontaneous activity [6]: modest to marked decrease in spontaneous activity

Compound: NC(=O)O[C@@H](Cn1ncnn1)c1ccccc1Cl [Cenobamate, cenobamate]
- Persistent INa Hill slope (human NaV1.6 [1]): (1.1)
- Ratio to Pers. INa (Peak INa TB) (human NaV1.6 [2]): 24
- Peak INa TB Hill slope (human NaV1.6 [2]): (1.1)
- UDB preference to TB (human NaV1.6 [3]): 2.3 ×
- Ratio to Pers. INa (Peak INa UDB-10 Hz) (human NaV1.6 [3]): 11
- Peak INa UDB-10 Hz Hill slope (human NaV1.6 [3]): (0.7)
- Ratio to Pers. INa (Peak INa VDB) (hNaV1.6 [4]): 0.9
- Peak INa VDB Hill slope (hNaV1.6 [4]): (0.9)
- kon (hNaV1.6 [7]): 19000 M⁻¹ s⁻¹
- ED50 [5]: 4.1 mg/kg

Compound: O=C1NC(=O)C(c2ccccc2)(c2ccccc2)N1 [Phenytoin, phenytoin]
- Persistent INa Hill slope (human NaV1.6 [1]): (0.8)
- Ratio to Pers. INa (Peak INa UDB-10 Hz) (human NaV1.6 [3]): 15
- Peak INa UDB-10 Hz Hill slope (human NaV1.6 [3]): (0.6)
- Ratio to Pers. INa (Peak INa VDB) (hNaV1.6 [4]): 0.8
- Peak INa VDB Hill slope (hNaV1.6 [4]): (1.0)

Compound: NC(=O)N1c2ccccc2C=Cc2ccccc21 [Carbamazepine, carbamazepine]
- Persistent INa Hill slope (human NaV1.6 [1]): (1.1)
- preference for persistent INa relative to peak INa (human NaV1.6 [1]; in words, FIGS. 1A-1D): no preference for persistent INa
- Ratio to Pers. INa (Peak INa TB) (human NaV1.6 [2]): 30
- Peak INa TB Hill slope (human NaV1.6 [2]): (1.0)
- UDB preference to TB (human NaV1.6 [3]): no UDB observed
- Ratio to Pers. INa (Peak INa UDB-10 Hz) (human NaV1.6 [3]): 18
- activity dependent block of peak INa (human NaV1.6 [3]): minimal activity dependent block of peak INa
- Peak INa UDB-10 Hz Hill slope (human NaV1.6 [3]): (0.9)
- Ratio to Pers. INa (Peak INa VDB) (hNaV1.6 [4]): 0.6
- Peak INa VDB Hill slope (hNaV1.6 [4]): (0.9)
- kon (hNaV1.6 [7]; development of inhibition of hNaV1.6 INa): 11000 M⁻¹ s⁻¹
- ED50 [5]: 5.4 mg/kg

Reference: US20250041284A1, “TREATMENT OF NEUROLOGICAL DISORDERS” (Praxis Precision Medicines, Inc., priority 2022, published 2025)
